Results reported in patent US12552783B2, “Modulators of proteolysis and associated methods of use” (Arvinas Operations, Inc., priority 2018, dated 2026).

Target: KRas (Homo sapiens, UniProt P01116, G12C)
Assay: KRas degradation in NCI-H2030 cells by Western blot, normalized to GAPDH (data of Table 14)
Type: cell-based
Design: host or cells: NCI-H2030
Details: for Percent Degradation at Indicated Concentration (μM): H2030; for Dmax: NCI-H2030
Outline: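 Degradation of endogenous homozygous G12C KRas is measured by immunoblot after serum starvation and compound exposure at three final concentrations (0.3, 1 and 3 μM). VHL-recruiting compounds are incubated 24 h and all others 72 h. Percent loss is calculated from GAPDH-normalized KRas relative to vehicle.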

| SMILES | Percent Degradation at Indicated Concentration (μM) (0.3 μM) | Percent Degradation at Indicated Concentration (μM) (1 μM) | Percent Degradation at Indicated Concentration (μM) (3 μM) | Dmax | Percent Degradation at Indicated Concentration (μM): 0.3 (H2030 cells, 0.3 μM) | Percent Degradation at Indicated Concentration (μM): 1 (H2030 cells, 1 μM) | Percent Degradation at Indicated Concentration (μM): 3 (H2030 cells, 3 μM) | Dmax (H2030 cells) |
| --- | --- | --- | --- | --- | --- | --- | --- | --- |
| C=CC(=O)N1CCN(c2nc(NCCC(=O)N(C)CCOCCOCCOc3cc(-c4scnc4C)ccc3CNC(=O)[C@@H]3C[C@@H](O)CN3C(=O)[C@H](c3cc(C)no3)C(C)C)nc3c(F)c(-c4cc(O)cc5ccccc45)c(Cl)cc23)CC1 [compound 342, (2S,4R)-N-(2-(2-(2-(2-(3-((4-(4-acryloylpiperazin-1-yl)-6-chloro-8-fluoro-7-(3-hydroxynaphthalen-1-yl)quinazolin-2-yl)amino)-N-methylpropanamido)ethoxy)ethoxy)ethoxy)-4-(4-methylthiazol-5-yl)benzyl)-4-hydroxy-1-((S)-3-methyl-2-(3-methylisoxazol-5-yl)butanoyl)pyrrolidine-2-carboxamide] | C (Percent Degradation: C ≤ 35) | C (Percent Degradation: C ≤ 35) | C (Percent Degradation: C ≤ 35) | ≤ 35% | – | – | – | – |
| C=CC(=O)N1CCN(c2nc(NCCC(=O)N(C)CCOCCOCCOCCOc3cc(-c4scnc4C)ccc3CNC(=O)[C@@H]3C[C@@H](O)CN3C(=O)[C@@H](c3cc(C)no3)C(C)C)nc3c(F)c(-c4cc(O)cc5ccccc45)c(Cl)cc23)CC1 [compound 343, (2S,4R)-N-(2-((15-((4-(4-acryloylpiperazin-1-yl)-6-chloro-8-fluoro-7-(3-hydroxynaphthalen-1-yl)quinazolin-2-yl)amino)-12-methyl-13-oxo-3,6,9-trioxa-12-azapentadecyl)oxy)-4-(4-methylthiazol-5-yl)benzyl)-4-hydroxy-1-((R)-3-methyl-2-(3-methylisoxazol-5-yl)butanoyl)pyrrolidine-2-carboxamide] | C (Percent Degradation: C ≤ 35) | C (Percent Degradation: C ≤ 35) | C (Percent Degradation: C ≤ 35) | ≤ 35% | – | – | – | – |
| Cc1ncsc1-c1ccc([C@H](C)NC(=O)[C@@H]2C[C@@H](O)CN2C(=O)[C@@H](NC(=O)COCC/C=C/C(=O)N2CCN(c3nc(NCCC(=O)N(C)C)nc4c(F)c(-c5cc(O)cc6ccccc56)c(Cl)cc34)CC2)C(C)(C)C)cc1 [compound 363, (2S,4R)-1-((2S)-2-(2-(((E)-5-(4-(6-chloro-2-((3-(dimethylamino)-3-oxopropyl)amino)-8-fluoro-7-(3-hydroxynaphthalen-1-yl)quinazolin-4-yl)piperazin-1-yl)-5-oxopent-3-en-1-yl)oxy)acetamido)-3,3-dimethylbutanoyl)-4-hydroxy-N-((S)-1-(4-(4-methylthiazol-5-yl)phenyl)ethyl)pyrrolidine-2-carboxamide] | C (Percent Degradation: C ≤ 35) | C (Percent Degradation: C ≤ 35) | C (Percent Degradation: C ≤ 35) | ≤ 35% | – | – | – | – |
| Cc1ncsc1-c1ccc([C@H](C)NC(=O)[C@@H]2C[C@@H](O)CN2C(=O)[C@@H](NC(=O)COCCOCCOCCOCC/C=C/C(=O)N2CCN(c3nc(NCCC(=O)N(C)C)nc4c(F)c(-c5cc(O)cc6ccccc56)c(Cl)cc34)CC2)C(C)(C)C)cc1 [compound 366] | C (Percent Degradation: C ≤ 35) | C (Percent Degradation: C ≤ 35) | C (Percent Degradation: C ≤ 35) | ≤ 35% | – | – | – | – |
| Cc1ncsc1-c1ccc([C@H](C)NC(=O)[C@@H]2C[C@@H](O)CN2C(=O)[C@@H](NC(=O)COCCOCC/C=C/C(=O)N2CCN(c3ncnc4c(F)c(-c5cc(O)cc6ccccc56)c(Cl)cc34)CC2)C(C)(C)C)cc1 [compound 373, (2S,4R)-1-((2S)-2-(2-(2-(((E)-5-(4-(6-chloro-8-fluoro-7-(3-hydroxynaphthalen-1-yl)quinazolin-4-yl)piperazin-1-yl)-5-oxopent-3-en-1-yl)oxy)ethoxy)acetamido)-3,3-dimethylbutanoyl)-4-hydroxy-N-((S)-1-(4-(4-methylthiazol-5-yl)phenyl)ethyl)pyrrolidine-2-carboxamide] | C (Percent Degradation: C ≤ 35) | C (Percent Degradation: C ≤ 35) | C (Percent Degradation: C ≤ 35) | ≤ 35% | – | – | – | – |
| Cc1ncsc1-c1ccc([C@H](C)NC(=O)[C@@H]2C[C@@H](O)CN2C(=O)[C@@H](NC(=O)COCCOCCOCCOCC/C=C/C(=O)N2CCN(c3ncnc4c(F)c(-c5cc(O)cc6ccccc56)c(Cl)cc34)CC2)C(C)(C)C)cc1 [compound 375, (2S,4R)-1-((2S,E)-2-(tert-butyl)-20-(4-(6-chloro-8-fluoro-7-(3-hydroxynaphthalen-1-yl)quinazolin-4-yl)piperazin-1-yl)-4,20-dioxo-6,9,12,15-tetraoxa-3-azaicos-18-enoyl)-4-hydroxy-N-((S)-1-(4-(4-methylthiazol-5-yl)phenyl)ethyl)pyrrolidine-2-carboxamide] | C (Percent Degradation: C ≤ 35) | C (Percent Degradation: C ≤ 35) | C (Percent Degradation: C ≤ 35) | ≤ 35% | – | – | – | – |
| C=CC(=O)N1CCN(c2nc(NCCCN(C)CCOCCOCCOCCOCC(=O)N[C@H](C(=O)N3C[C@H](O)C[C@H]3C(=O)N[C@@H](C)c3ccc(-c4scnc4C)cc3)C(C)(C)C)nc3c(F)c(-c4cc(O)cc5ccccc45)c(Cl)cc23)CC1 [compound 396, (2S,4R)-1-((2S)-21-((4-(4-acryloylpiperazin-1-yl)-6-chloro-8-fluoro-7-(3-hydroxynaphthalen-1-yl)quinazolin-2-yl)amino)-2-(tert-butyl)-18-methyl-4-oxo-6,9,12,15-tetraoxa-3,18-diazahenicosanoyl)-4-hydroxy-N-((S)-1-(4-(4-methylthiazol-5-yl)phenyl)ethyl)pyrrolidine-2-carboxamide] | C (Percent Degradation: C ≤ 35) | C (Percent Degradation: C ≤ 35) | C (Percent Degradation: C ≤ 35) | ≤ 35% | – | – | – | – |

The remaining lines, values ahead:

| Percent Degradation at Indicated Concentration (μM) (0.3 μM) | Percent Degradation at Indicated Concentration (μM) (1 μM) | Percent Degradation at Indicated Concentration (μM) (3 μM) | Dmax | Percent Degradation at Indicated Concentration (μM): 0.3 (H2030 cells, 0.3 μM) | Percent Degradation at Indicated Concentration (μM): 1 (H2030 cells, 1 μM) | Percent Degradation at Indicated Concentration (μM): 3 (H2030 cells, 3 μM) | Dmax (H2030 cells) | SMILES |
| --- | --- | --- | --- | --- | --- | --- | --- | --- |
| C (Percent Degradation: C ≤ 35) | C (Percent Degradation: C ≤ 35) | C (Percent Degradation: C ≤ 35) | ≤ 35% | – | – | – | – | C=CC(=O)N1CCN(c2nc(NCCC(=O)N(C)CCOCCOCCOCCOc3cc(-c4scnc4C)ccc3CNC(=O)[C@@H]3C[C@@H](O)CN3C(=O)[C@H](c3cc(C)no3)C(C)C)nc3c(F)c(-c4cc(O)cc5ccccc45)c(Cl)cc23)CC1 [compound 344] |
| – | – | – | – | C (C ≤ 35) | C (C ≤ 35) | C (C ≤ 35) | ≤ 35% | C=CC(=O)N1CCN(c2nc(NCCC(=O)N(C)CCOCCOCCOCCOCCOc3cc(-c4scnc4C)ccc3CNC(=O)[C@@H]3C[C@@H](O)CN3C(=O)[C@@H](c3cc(C)no3)C(C)C)nc3c(F)c(-c4cc(O)cc5ccccc45)c(Cl)cc23)CC1 [compound 345, (2S,4R)-N-(2-((18-((4-(4-acryloylpiperazin-1-yl)-6-chloro-8-fluoro-7-(3-hydroxynaphthalen-1-yl)quinazolin-2-yl)amino)-15-methyl-16-oxo-3,6,9,12-tetraoxa-15-azaoctadecyl)oxy)-4-(4-methylthiazol-5-yl)benzyl)-4-hydroxy-1-((R)-3-methyl-2-(3-methylisoxazol-5-yl)butanoyl)pyrrolidine-2-carboxamide] |
| C (Percent Degradation: C ≤ 35) | C (Percent Degradation: C ≤ 35) | C (Percent Degradation: C ≤ 35) | ≤ 35% | – | – | – | – | C=CC(=O)N1CCN(c2nc(NCCC(=O)N(C)CCOCCOCCOCCOCCOc3cc(-c4scnc4C)ccc3CNC(=O)[C@@H]3C[C@@H](O)CN3C(=O)[C@H](c3cc(C)no3)C(C)C)nc3c(F)c(-c4cc(O)cc5ccccc45)c(Cl)cc23)CC1 [compound 346, (2S,4R)-N-(2-((18-((4-(4-acryloylpiperazin-1-yl)-6-chloro-8-fluoro-7-(3-hydroxynaphthalen-1-yl)quinazolin-2-yl)amino)-15-methyl-16-oxo-3,6,9,12-tetraoxa-15-azaoctadecyl)oxy)-4-(4-methylthiazol-5-yl)benzyl)-4-hydroxy-1-((S)-3-methyl-2-(3-methylisoxazol-5-yl)butanoyl)pyrrolidine-2-carboxamide] |
| C (Percent Degradation: C ≤ 35) | C (Percent Degradation: C ≤ 35) | C (Percent Degradation: C ≤ 35) | ≤ 35% | – | – | – | – | COc1cc(-c2scnc2C)ccc1[C@H](C)NC(=O)[C@@H]1C[C@@H](O)CN1C(=O)[C@@H](c1cc(OCCOCCOCCOCCOCCN(C)C(=O)CCNc2nc(N3CCN(C(C)=O)CC3)c3cc(Cl)c(-c4cc(O)cc5ccccc45)c(F)c3n2)no1)C(C)C [compound 391, (2S,4R)-1-((2R)-2-(3-((18-((4-(4-acetylpiperazin-1-yl)-6-chloro-8-fluoro-7-(3-hydroxynaphthalen-1-yl)quinazolin-2-yl)amino)-15-methyl-16-oxo-3,6,9,12-tetraoxa-15-azaoctadecyl)oxy)isoxazol-5-yl)-3-methylbutanoyl)-4-hydroxy-N-((S)-1-(2-methoxy-4-(4-methylthiazol-5-yl)phenyl)ethyl)pyrrolidine-2-carboxamide] |
